Experimental data: patent publication US12679878B2, “CRF2 receptor agonists and their use in therapy” (SANOFI, priority 2020, dated 2026)
Starred links: 1 amine or outer side, 2 acyl side, 3 side chain; linkers in the order of their positions; H or OH if unused. Non-standard residues stand in square brackets, D forms with d. Residues, ends and D or L forms follow the SMILES beside them. Groups on a side chain read outwards from the residue. *: point of attachment. C18 diacid = O=C(O)CCCCCCCCCCCCCCCCC(=O)*; γGlu = O=C(O)[C@H](CCC(=O)[*:2])N[*:1]; AEEA = NCCOCCOCC(=O)O; Aib = CC(C)(N)C(=O)O

Experiment: Effect on blood pressure, telemetry (Example 17)
Format: in vivo
Conditions: Sprague Dawley rats, 0.1 mg/kg SC
Experimental: The effect of the compounds on blood pressure was determined in telemetry studies in Sprague Dawley rats at a dosage of 0.1 mg/kg SC.
The rats were previously implanted with a telemetry device (DSI, Saint-Paul, USA, HD-S10, HD-S11 or HD S21) and allowed to recover for a minimum period of 2 weeks before treatment with vehicle or the different peptides. Blood pressure (BP) was recorded through a catheter inserted into the abdominal aorta. The device body was placed in the abdomen. At the end of surgery, animals were placed in individual cages until the end of the study.
Pressure signals were recorded for one hour before the treatment (basal period). Thereafter, the subcutaneous administration of the test compound or its vehicle was performed, under continuous recording of the signal over a 48-hour period. Data acquisition was performed using Hem 4.3 acquisition software (Notocord®, Le Pecq, France) connected to the telemetry device. Hemodynamic parameters were recorded during a […] before treatment and every 4-hour period following subcutaneous administration over 48 hours.
Investigated parameters (calculated from BP signal) were Heart Rate (HR) in beats per minute (bpm), Diastolic and Systolic Blood Pressure (DBP) in mmHg, and Mean Blood Pressure (MBP) in mmHg.
Data from Hem were manipulated using Microsoft Excel®. For each parameter, a basal value was determined as the average calculated over a 1-hour period during the pre-treatment sequence, and the values post treatment were calculated over 4-hour periods ([0-4], [4-8], [8-12], [12-16], [16-20], [20-24], [24-28], [32-36], [36-40], [40-44] and [44-48] hours) covering the 48-hour period following administration.
Representative data are presented in Table 15 below, in which “n” represents the number of animals for which individual values were obtained and “Duration” indicates the last time point for which a significant effect on BP was still seen: Table 15

SMILES	Duration (h): last time point for which a significant effect on BP was still seen [h]	Effect on Systolic Pressure % change from baseline 8 h [%]	Effect on Systolic Pressure % change from baseline 24 h [%]
CC[C@H](C)[C@H](N)C(=O)N[C@H](C(=O)N[C@@H](CC(C)C)C(=O)N[C@@H](CO)C(=O)N[C@@H](CC(C)C)C(=O)N[C@@H](CC(=O)O)C(=O)N[C@@H](C(=O)N1CCC[C@H]1C(=O)N[C@H](C(=O)N[C@@H](CCCCN)C(=O)N[C@@H](CC(C)C)C(=O)N[C@@H](CCCCNC(=O)COCCOCCNC(=O)COCCOCCNC(=O)CC[C@H](NC(=O)CCCCCCCCCCCCCCCCC(=O)O)C(=O)O)C(=O)N[C@@H](CCC(N)=O)C(=O)N[C@H](C(=O)N[C@@H](CC(C)C)C(=O)N[C@@H](CC(C)C)C(=O)N[C@@H](CCCCN)C(=O)N[C@@H](CCC(N)=O)C(=O)N[C@@H](C)C(=O)N[C@@H](CCCNC(=N)N)C(=O)N[C@@H](CCC(N)=O)C(=O)N[C@@H](CCCCN)C(=O)NC(C)(C)C(=O)N[C@@H](CCC(N)=O)C(=O)N[C@@H](CCCNC(=N)N)C(=O)N[C@@H](C)C(=O)N[C@@H](CCC(N)=O)C(=O)N[C@@H](C)C(=O)N[C@@H](CCC(=O)O)C(=O)N[C@@H](CCCCN)C(=O)N[C@@H](CC(N)=O)C(=O)N[C@@H](CCCCN)C(=O)N[C@@H](CCCNC(=N)N)C(=O)N[C@H](C(=O)N[C@@H](CC(C)C)C(=O)N[C@@H](CCC(=O)O)C(=O)N[C@@H](CCCNC(=N)N)C(=O)N[C@H](C(N)=O)C(C)C)[C@@H](C)CC)[C@@H](C)CC)[C@@H](C)CC)C(C)C)C(C)C [SEQ ID NO: 141, IVLSLDvPIKLK*QILLKQARQKAibQRAQAEKNKRILERV-NH2] (H-IVLSLD[dV]PIKLK([AEEA-AEEA-γGlu-C18 diacid])QILLKQARQK[Aib]QRAQAEKNKRILERV-NH2)	24	−5.2	−4.2
CC[C@H](C)[C@H](N)C(=O)N[C@H](C(=O)N[C@@H](CC(C)C)C(=O)N[C@@H](CO)C(=O)N[C@@H](CC(C)C)C(=O)N[C@@H](CC(=O)O)C(=O)N[C@@H](C(=O)N1CCC[C@H]1C(=O)N[C@H](C(=O)N[C@@H](CCCCN)C(=O)N[C@@H](CC(C)C)C(=O)N[C@@H](CCCCNC(=O)COCCOCCNC(=O)COCCOCCNC(=O)CC[C@H](NC(=O)CCCCCCCCCCCCCCCCC(=O)O)C(=O)O)C(=O)N[C@@H](CCC(N)=O)C(=O)N[C@H](C(=O)N[C@@H](CC(C)C)C(=O)N[C@@H](CC(C)C)C(=O)N[C@@H](CCC(=O)O)C(=O)N[C@@H](CCC(N)=O)C(=O)N[C@@H](C)C(=O)N[C@@H](CCCNC(=N)N)C(=O)N[C@@H](CCC(N)=O)C(=O)N[C@@H](CCCCN)C(=O)NC(C)(C)C(=O)N[C@@H](CCC(N)=O)C(=O)N[C@@H](CCCNC(=N)N)C(=O)N[C@@H](CCC(=O)O)C(=O)N[C@@H](CCC(N)=O)C(=O)N[C@@H](C)C(=O)N[C@@H](CCC(=O)O)C(=O)N[C@@H](CCCCN)C(=O)N[C@@H](CC(N)=O)C(=O)N[C@@H](CCCCN)C(=O)N[C@@H](CCCNC(=N)N)C(=O)N[C@H](C(=O)N[C@@H](CC(C)C)C(=O)N[C@@H](CCC(=O)O)C(=O)N[C@@H](CCCNC(=N)N)C(=O)N[C@H](C(N)=O)C(C)C)[C@@H](C)CC)[C@@H](C)CC)[C@@H](C)CC)C(C)C)C(C)C [SEQ ID NO: 142, IVLSLDvPIKLK*QILLEQARQKAibQREQAEKNKRILERV-NH2] (H-IVLSLD[dV]PIKLK([AEEA-AEEA-γGlu-C18 diacid])QILLEQARQK[Aib]QREQAEKNKRILERV-NH2)	30	−22.2	−6.5
CC[C@H](C)[C@H](N)C(=O)N[C@H](C(=O)N[C@@H](CC(C)C)C(=O)N[C@@H](CO)C(=O)N[C@@H](CC(C)C)C(=O)N[C@@H](CC(=O)O)C(=O)N[C@@H](C(=O)N1CCC[C@H]1C(=O)N[C@H](C(=O)N[C@@H](CCCCN)C(=O)N[C@@H](CC(C)C)C(=O)N[C@@H](CCCCNC(=O)COCCOCCNC(=O)COCCOCCNC(=O)CC[C@H](NC(=O)CCCCCCCCCCCCCCCCC(=O)O)C(=O)O)C(=O)N[C@@H](CCC(N)=O)C(=O)N[C@H](C(=O)N[C@@H](CC(C)C)C(=O)N[C@@H](CC(C)C)C(=O)N[C@@H](CCCCN)C(=O)N[C@@H](CCC(N)=O)C(=O)N[C@@H](CCC(=O)O)C(=O)N[C@@H](CCCNC(=N)N)C(=O)N[C@@H](CCC(N)=O)C(=O)N[C@@H](CCCCN)C(=O)N[C@@H](CCCCN)C(=O)NC(C)(C)C(=O)N[C@@H](CCCNC(=N)N)C(=O)N[C@@H](CCC(=O)O)C(=O)N[C@@H](CCC(N)=O)C(=O)N[C@@H](C)C(=O)N[C@@H](CCC(=O)O)C(=O)N[C@H](C(=O)N[C@@H](CC(N)=O)C(=O)N[C@@H](CCCCN)C(=O)N[C@@H](CCCNC(=N)N)C(=O)N[C@H](C(=O)N[C@@H](CC(C)C)C(=O)N[C@@H](CCC(=O)O)C(=O)N[C@@H](CCCNC(=N)N)C(=O)N[C@H](C(N)=O)C(C)C)[C@@H](C)CC)[C@@H](C)O)[C@@H](C)CC)[C@@H](C)CC)C(C)C)C(C)C [SEQ ID NO: 149, IVLSLDvPIKLK*QILLKQERQKKAibREQAETNKRILERV-NH2] (H-IVLSLD[dV]PIKLK([AEEA-AEEA-γGlu-C18 diacid])QILLKQERQKK[Aib]REQAETNKRILERV-NH2)	30	−11.5	−2.5
CC[C@H](C)[C@H](N)C(=O)N[C@H](C(=O)N[C@@H](CC(C)C)C(=O)N[C@@H](CO)C(=O)N[C@@H](CC(C)C)C(=O)N[C@@H](CC(=O)O)C(=O)N[C@@H](C(=O)N1CCC[C@H]1C(=O)N[C@H](C(=O)NCC(=O)N[C@@H](CC(C)C)C(=O)N[C@@H](CCCCNC(=O)COCCOCCNC(=O)COCCOCCNC(=O)CC[C@H](NC(=O)CCCCCCCCCCCCCCCCC(=O)O)C(=O)O)C(=O)N[C@@H](CCC(N)=O)C(=O)N[C@H](C(=O)N[C@@H](CC(C)C)C(=O)N[C@@H](CC(C)C)C(=O)N[C@@H](CCCCN)C(=O)N[C@@H](CCC(N)=O)C(=O)N[C@@H](CCC(=O)O)C(=O)N[C@@H](CCCNC(=N)N)C(=O)N[C@@H](CCC(N)=O)C(=O)N[C@@H](CCCCN)C(=O)N[C@@H](CCCCN)C(=O)NC(C)(C)C(=O)N[C@@H](CCCNC(=N)N)C(=O)N[C@@H](CCC(=O)O)C(=O)N[C@@H](CCC(N)=O)C(=O)N[C@@H](C)C(=O)N[C@@H](CCC(=O)O)C(=O)N[C@@H](CCCCN)C(=O)N[C@@H](CC(N)=O)C(=O)N[C@@H](CCCCN)C(=O)N[C@@H](CCCNC(=N)N)C(=O)N[C@H](C(=O)N[C@@H](CC(C)C)C(=O)N[C@@H](CCC(=O)O)C(=O)N[C@@H](CCCNC(=N)N)C(=O)N[C@H](C(N)=O)C(C)C)[C@@H](C)CC)[C@@H](C)CC)[C@@H](C)CC)C(C)C)C(C)C [SEQ ID NO: 151, IVLSLDvPIGLK*QILLKQERQKKAibREQAEKNKRILERV-NH2] (H-IVLSLD[dV]PIGLK([AEEA-AEEA-γGlu-C18 diacid])QILLKQERQKK[Aib]REQAEKNKRILERV-NH2)	28	−12.3	−3.8
CC[C@H](C)[C@H](N)C(=O)N[C@H](C(=O)N[C@@H](CC(C)C)C(=O)N[C@@H](CO)C(=O)N[C@@H](CC(C)C)C(=O)N[C@@H](CC(=O)O)C(=O)N[C@H](C(=O)N1CCC[C@H]1C(=O)N[C@H](C(=O)N[C@@H](CCCCN)C(=O)N[C@@H](CC(C)C)C(=O)N[C@@H](CCCCNC(=O)COCCOCCNC(=O)COCCOCCNC(=O)CC[C@H](NC(=O)CCCCCCCCCCCCCCCCC(=O)O)C(=O)O)C(=O)N[C@@H](CCC(N)=O)C(=O)N[C@H](C(=O)N[C@@H](CC(C)C)C(=O)N[C@@H](CC(C)C)C(=O)N[C@@H](CCCCN)C(=O)N[C@@H](CCC(N)=O)C(=O)N[C@@H](CCC(=O)O)C(=O)N[C@@H](CCCNC(=N)N)C(=O)N[C@@H](CCC(N)=O)C(=O)N[C@@H](CCCCN)C(=O)N[C@@H](CCCCN)C(=O)NC(C)(C)C(=O)N[C@@H](CCCNC(=N)N)C(=O)N[C@@H](CCC(=O)O)C(=O)N[C@@H](CCC(N)=O)C(=O)N[C@@H](C)C(=O)N[C@@H](CCC(=O)O)C(=O)N[C@H](C(=O)N[C@@H](CC(N)=O)C(=O)N[C@@H](CCCCN)C(=O)N[C@@H](CCCNC(=N)N)C(=O)N[C@H](C(=O)N[C@@H](CC(C)C)C(=O)N[C@@H](CCC(=O)O)C(=O)N[C@@H](CCCNC(=N)N)C(=O)N[C@H](C(N)=O)C(C)C)[C@@H](C)CC)[C@@H](C)O)[C@@H](C)CC)[C@@H](C)CC)C(C)C)C(C)C [SEQ ID NO: 152, IVLSLDVPIKLK*QILLKQERQKKAibREQAETNKRILERV-NH2] (H-IVLSLDVPIKLK([AEEA-AEEA-γGlu-C18 diacid])QILLKQERQKK[Aib]REQAETNKRILERV-NH2)	20	−8.6	−6.0
